The source of these data is US12351556B2, “Pyridin-2(1H)one derivatives, their preparation and their use for the treatment of pain” (INSTITUT NATIONAL DE LA SANTE ET DE LA RECHERCHE MEDICALE …, priority 2019, dated 2025).

The target of one assay is EPH-A2 (Homo sapiens (Human), UniProt P29317). Briefly: ICKP protein kinase panel screening. In kind it is biochemical. The conditions noted are these: duplicate assays, read-out: mean % residual activity. On the procedure:
(§1) FIG. 3 illustrates the human kinome. Compound 69 was evaluated at the International Center For Kinase Profiling (ICKP, Dundee, Scotland) toward a panel of 50 protein kinases that provide a representative sampling of the human kinome. The results were expressed as the mean percentage of residual activity at 10 μM concentration (duplicate assays). Small disks: ≥65%, larger disk: 19%. The black square indicates the kinome region containing protein kinases evaluated in a second screening (FIG. 4, Table 4). The tree was generated using the Kinome Render software, and the illustration reproduced courtesy of Cell Signaling Technology, Inc. (www.cellsignal.com) Chartier et al PeerJ 2013, 1:e126.
(§2) Results are expressed as the mean percentage of residual activity at 10 μM (Table 3) or 1 μM (Table 4). They are illustrated on FIGS. 3 and 4.
(§3) Studies were undertaken to identify the possible biological target(s) of compound 69. The activation in neurons of PK such as PKCγ, ERK or p38 MAPK can contribute to pain hypersensitivity. Therefore, it was decided to screen compound 69 toward a panel of 50 PKs that provide a representative sampling of the human kinome (FIG. 3, Table 3) (Biochem. J. 2007, 408, 297-315). In this panel, p38α MAPK was identified as the privileged target, with 19% of kinase residual activity at 10 μM compound concentration.

The next assay concerns the target TTK (Homo sapiens (Human), UniProt P33981). Briefly: ICKP protein kinase panel screening. In kind it is biochemical. The conditions noted are these: duplicate assays, read-out: mean % residual activity. On the procedure:
as §1, §2, §3

The subject of assay [1] is facial neuropathic MA (IoN-CCl). Briefly: Neuropathic MA: chronic constriction injury of the infraorbital nerve (IoN-CCl). In kind it is in vivo. The conditions noted are these: rat, intracisternal 5 μL at 100 μM, 14 days after IoN-CCl. On the procedure:
Time courses of changes in behavioral responses (allodynic score) evoked by normally innocuous mechanical stimuli (6-g von Frey filament) applied on the face of rats intracisternally treated with compound 69 (5 μL at 100 μM) or vehicle. In A, compound 69 or vehicle was preemptively applied 30 min before subcutaneous injection of CFA (at time 0). In B, compound 69 or vehicle was applied (at time 0) 14 days after IoN-CCl; that is, once a stable MA was established. […] Results are presented as mean±s.e.m.; n=4 (A) and n=5 (B) in each group. Allodynic score (from 0 to 4) according to Vos et al. J. Neurosci. 1994, 14, 2708-2723.
Rat model of neuropathic MA: chronic constriction injury of the rat's infraorbital nerve (IoN-CCl).
IoN-CCl was performed following a previously established surgical procedure Vos et al J. Neurosci. […]
For investigating the effects of synthetized compounds upon mechanical allodynia, animals were briefly (<2 min) anesthetized using a mask with 2% isoflurane and received an intracisternal injection of 5 μL of compound (100 μM) or vehicle alone (saline+1% DMSO) using a 10 μL Hamilton syringe. […] The behavioral responses were observed and quantified by a second experimenter (see below). […]
Compound 69 was also evaluated in a rat model of facial neuropathic MA produced by the constriction injury of the rat infraorbital nerve (IoN-CCl; J. Neurosci. 1994, 14, 2708-2723) (FIG. 2B). […]

The next assay deals with ROCK 2. As to the kind of experiment: ICKP protein kinase panel screening. In kind it is biochemical, human. As to conditions: 10 μM, duplicate assays. As for the experimental part: as §1, §2, §3
The next assay deals with AMPK (hum). As to the kind of experiment: ICKP protein kinase panel screening. In kind it is biochemical, human. As to conditions: 10 μM, duplicate assays. As for the experimental part: as §1, §2, §3
Another assay has as its system CK2. As to the kind of experiment: ICKP protein kinase panel screening. In kind it is biochemical, human. The conditions noted are these: 10 μM, duplicate assays. On the procedure: as §1, §2, §3
Assay [2] deals with inflammatory MA (face CFA model). Briefly: Face Complete Freund's Adjuvant (CFA) model of inflammatory mechanical allodynia. In kind it is in vivo. The conditions noted are these: rat, 10 mg/kg intra-peritoneally, 30 min before CFA.
The next assay addresses p38a MAPK (Homo sapiens (Human), UniProt Q16539). As to the kind of experiment: ICKP protein kinase panel screening. As to conditions: duplicate assays, read-out: mean % residual activity. In kind it is biochemical. On the procedure: as §1
(§4) FIG. 4 illustrates the studies carried out for compounds 67 and 69. Compounds 67 and 69 (FIG. 4B) were evaluated at the International Center For Kinase Profiling (ICKP, Dundee, Scotland) toward a panel of 13 protein kinases. The results (FIG. 4A) were expressed as the mean percentage of residual activity at 1 μM concentration (duplicate assays). Small disks: ≥90%, larger disk: 59%, for both compounds. The tree was generated using the Kinome Render software, and the illustration reproduced courtesy of Cell Signaling Technology, Inc. (www.cellsignal.com) Chartier et al PeerJ 2013, 1:e126.
as §2, §3
(§5) The selectivity of compound 69 was evaluated at 1 μM toward another panel containing all four p38 MAPK isoforms, ERK1, ERK2 as well as other protein kinases close to p38α MAPK in the kinome phylogenetic tree (FIG. 4, Table 4). […] Its IC50 toward p38α MAPK was determined, showing a value in the micromolar range (IC50=3.0±0.1 μM).

The next assay concerns the target JNK1 (Homo sapiens (Human), UniProt P45983). Briefly: ICKP protein kinase panel screening. In kind it is biochemical. As to conditions: duplicate assays, read-out: mean % residual activity. On the procedure:
as §1, §4, §2, §3, §5

The target of another assay is p38α MAPK (Homo sapiens (Human), UniProt Q16539). Briefly: p38 alpha IC50. In kind it is biochemical. On the procedure:
as §3, §5

Entries after “also recorded” stand apart in the source; their conditions may differ. Where two headings read alike, the source gives them in different places.

Sequence of JNK1 (P45983 whole entry): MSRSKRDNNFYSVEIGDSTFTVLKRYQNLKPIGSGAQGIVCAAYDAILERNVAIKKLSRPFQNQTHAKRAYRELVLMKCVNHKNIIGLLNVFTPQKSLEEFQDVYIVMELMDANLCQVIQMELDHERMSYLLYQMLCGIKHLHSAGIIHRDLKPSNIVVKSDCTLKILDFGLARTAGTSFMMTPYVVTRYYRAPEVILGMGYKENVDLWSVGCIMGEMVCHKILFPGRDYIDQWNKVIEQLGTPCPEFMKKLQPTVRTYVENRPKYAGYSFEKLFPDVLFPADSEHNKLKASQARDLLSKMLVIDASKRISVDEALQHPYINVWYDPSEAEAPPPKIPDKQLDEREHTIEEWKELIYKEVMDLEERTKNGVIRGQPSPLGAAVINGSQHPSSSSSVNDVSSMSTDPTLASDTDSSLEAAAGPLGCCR
Sequence of p38α MAPK (Q16539 whole entry): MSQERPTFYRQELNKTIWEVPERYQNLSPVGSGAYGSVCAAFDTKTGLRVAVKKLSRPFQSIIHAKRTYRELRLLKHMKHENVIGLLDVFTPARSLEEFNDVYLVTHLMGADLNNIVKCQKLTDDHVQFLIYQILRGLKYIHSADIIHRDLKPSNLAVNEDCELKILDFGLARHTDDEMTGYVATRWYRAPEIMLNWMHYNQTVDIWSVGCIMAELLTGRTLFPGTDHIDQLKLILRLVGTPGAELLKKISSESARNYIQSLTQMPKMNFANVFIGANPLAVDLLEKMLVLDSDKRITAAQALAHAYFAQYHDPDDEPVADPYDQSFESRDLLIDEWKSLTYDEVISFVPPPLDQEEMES
Sequence of p38a MAPK (Q16539 whole entry): as above
Sequence of EPH-A2 (P29317 24-976): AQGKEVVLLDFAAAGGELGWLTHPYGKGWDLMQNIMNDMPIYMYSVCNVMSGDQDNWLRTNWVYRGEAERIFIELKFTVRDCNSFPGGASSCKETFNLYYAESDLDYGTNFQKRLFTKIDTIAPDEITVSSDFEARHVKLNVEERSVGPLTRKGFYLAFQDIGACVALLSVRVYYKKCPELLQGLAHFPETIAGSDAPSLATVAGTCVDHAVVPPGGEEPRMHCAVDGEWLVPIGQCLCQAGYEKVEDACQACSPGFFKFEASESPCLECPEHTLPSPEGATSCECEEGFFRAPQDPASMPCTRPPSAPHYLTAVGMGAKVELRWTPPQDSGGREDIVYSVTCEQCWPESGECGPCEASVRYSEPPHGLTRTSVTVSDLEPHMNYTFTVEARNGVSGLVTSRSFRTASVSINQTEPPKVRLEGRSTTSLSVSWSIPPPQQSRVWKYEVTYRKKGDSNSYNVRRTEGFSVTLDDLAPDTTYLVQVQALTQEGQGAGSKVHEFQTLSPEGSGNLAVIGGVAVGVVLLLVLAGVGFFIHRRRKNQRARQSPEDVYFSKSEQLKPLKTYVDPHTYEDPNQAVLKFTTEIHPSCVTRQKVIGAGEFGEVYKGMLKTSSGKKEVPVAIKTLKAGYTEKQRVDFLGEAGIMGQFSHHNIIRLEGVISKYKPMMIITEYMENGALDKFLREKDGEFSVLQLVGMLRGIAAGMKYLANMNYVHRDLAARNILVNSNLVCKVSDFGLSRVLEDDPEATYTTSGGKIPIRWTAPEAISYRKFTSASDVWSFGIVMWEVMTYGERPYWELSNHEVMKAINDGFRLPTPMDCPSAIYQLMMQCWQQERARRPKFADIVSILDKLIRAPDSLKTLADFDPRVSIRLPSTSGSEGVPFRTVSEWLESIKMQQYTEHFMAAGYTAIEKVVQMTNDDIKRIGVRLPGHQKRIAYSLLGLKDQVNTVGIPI
Sequence of TTK (P33981 whole entry): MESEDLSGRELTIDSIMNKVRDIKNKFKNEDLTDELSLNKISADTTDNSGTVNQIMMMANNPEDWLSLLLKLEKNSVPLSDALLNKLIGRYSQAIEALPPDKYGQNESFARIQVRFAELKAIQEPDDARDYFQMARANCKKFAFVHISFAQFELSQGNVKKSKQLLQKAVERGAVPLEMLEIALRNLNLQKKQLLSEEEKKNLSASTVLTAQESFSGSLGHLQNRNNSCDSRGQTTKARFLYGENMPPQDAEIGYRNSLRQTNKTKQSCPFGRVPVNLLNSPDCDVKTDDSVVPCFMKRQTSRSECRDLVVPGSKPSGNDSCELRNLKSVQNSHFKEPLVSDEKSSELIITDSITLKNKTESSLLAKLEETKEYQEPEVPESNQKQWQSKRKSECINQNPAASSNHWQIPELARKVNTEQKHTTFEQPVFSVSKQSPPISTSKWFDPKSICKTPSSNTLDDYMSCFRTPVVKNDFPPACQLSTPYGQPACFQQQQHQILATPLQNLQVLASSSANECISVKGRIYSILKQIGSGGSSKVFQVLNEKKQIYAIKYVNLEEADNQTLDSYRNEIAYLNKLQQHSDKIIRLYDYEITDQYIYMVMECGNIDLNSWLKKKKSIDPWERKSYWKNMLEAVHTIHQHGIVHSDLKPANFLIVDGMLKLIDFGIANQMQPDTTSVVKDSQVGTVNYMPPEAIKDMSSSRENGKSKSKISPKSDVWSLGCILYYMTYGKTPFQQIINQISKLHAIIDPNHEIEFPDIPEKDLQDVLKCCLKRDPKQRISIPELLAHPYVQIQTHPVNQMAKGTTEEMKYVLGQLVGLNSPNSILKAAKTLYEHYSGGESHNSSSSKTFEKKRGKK

A word on the IC50: it is the concentration that gives 50% inhibition. Consider `O=c1[nH]cc(Nc2ccccc2)cc1-c1ccccc1Br` [Compound 69, 3-(2-Bromophenyl)-5-(phenylamino)pyridin-2(1H)-one], for which the remaining activity at 10 µM on EPH-A2 was found to be 109%; at TTK, 81%; on p38a MAPK (10 μM), 19%; on JNK1 (10 μM), 102%. For the same compound, the “reversal of neuropathic MA (allodynic score)” value in assay [1] was “reversed MA; also recorded: quickly reversed”. Moreover, the “mean % residual activity” value was 105% in the assay on ROCK 2, 95% in the assay on AMPK (hum) and 94% in the assay on CK2. The “prevention of inflammatory MA (allodynic score), systemic application” value in assay [2] is recorded as “completely suppressed”. Besides, the remaining activity at 1 µM on p38a MAPK (1 μM) stood at 59%; on JNK1 (1 μM), 115%. Further, the IC50 at p38α MAPK (p38 alpha, read-out: Mean IC50) came to 1460 nM; at p38α MAPK (read-out: IC50 toward p38α MAPK), 1500 ± 700 nM.
